The target in this assay is LovK (Caulobacter vibrioides, UniProt A0A0H3C379). Description: competition with BODIPY-ATP, fluorescence anisotropy. The class given is binding. The note with it: 1 mM ATP in excess; competitive, same site as BODIPY-ATP.

SMILES strings stand for the structures.

As to `Nc1ncnc2c1ncn2[C@@H]1O[C@H](COP(=O)(O)OP(=O)(O)OP(=O)(O)O)[C@@H](O)[C@H]1O` [ATP], the “competition with BODIPY-ATP, fluorescence anisotropy” value was “BODYPI-ATP is displaced from LovK due to competition for the same binding site”.

The values above are taken from PMC2882989 (Biochemistry, 2010).
